Data reported in US7244754B2, “2-methylthiazolidine-2,4-dicarboxylic acid and salts thereof for treatment of neurodegenerative diseases” (priority 2002, dated 2007).

Assays:
MNRI mice = experiment: Apoplexy model: occlusion of the middle cerebral artery in mice, infarction surface by neutral red staining; format: in vivo; conditions: application after or before occlusion, as in examples 3 and 4
Source text: In another animal experiment model (apoplexy model) it could be shown (examples 3 and 4) that 2-MTDC as well as salts of 2-MTDC have a cerebroprotective effect.
The following test series deals with the examination of the neuroprotective effect of 2-MTDC-Na in application of 2-MTDC-Na after the ischemia.
Per test group 13 through 16 MNRI mice were employed. The middle cerebral artery of the mice was occluded according to the method of Welsh (F. A. Welsh, T. Sakamoto, A. E. McKee, R. E. Sims, J. Neurochem. 1987, 49, 846-851). For that purpose the mice are anesthetized with tribromoethanol (600 mg/kg body weight, intraperitoneally). Immediately after the anesthesia a small cavity was drilled into the mice cranium to lay open the middle cerebral artery. The strain as well as both arms of the middle cerebral artery were occluded via electro coagulation. Meanwhile the blood heat of the mice was kept on 37° C.±1° C. by utilizing a heating lamp. Subsequently the mice were kept at a surrounding temperature of 30° C. for another 2 h.
One group of mice was injected intraperitoneally 2-MTDC-Na (200 mg/kg 2-MTDC-Na dissolved in 0.9% NaCl solution) 15 minutes after and another group 60 minutes after the occlusion of the middle cerebral artery. A third group received the vehicle only (0.9% NaCl solution without 2-MTDC-Na).
For the following histologic examination 2 days after the occlusion of the middle cerebral artery the mice were anesthetized again with tribromoethanol and received intraperitoneally applied 0.5 ml of a 1.5% solution of neutral red (toluylene red, Acros Chimica) in addition. The brains were extracted and kept for 24 h in a fixative solution (4% formalin with phosphate buffer at pH 7.4).
The tissue on the surface of the brain which was not colored by neutral red was measured as surface region affected by infarction under utilizing a color analysis system (Kontron, Eching, Germany) (C. Backhauβ, C. Karkoutly, M. Welsh, J. Krieglstein, J. Pharmacol Toxicol Methods, 1992, 27 (2), 27-32).
The execution of the test according to example 3 was repeated whereas 2-MTDC-Na was applied one hour before the occlusion of the middle cerebral artery (MCA-O: occlusion of the middle cerebral artery).

dopaminergic neurons = experiment: Intrastriatal sodium malonate lesion in rats; transmitters and metabolites in striatum and substantia nigra by HPLC; format: in vivo, Wistar rats; conditions: for activity of dopaminergic neurons (3-methoxytyramine concentration): lysine salt injected intraperitoneally four to five days before measuring, rats
striatum of rats = conditions: seven days after injecting the malonate; cited from earlier work

Question: What does the source list for CC1(C(=O)O)NC(C(=O)O)CS1.NCCCCC(N)C(=O)O.NCCCCC(N)C(=O)O (centres unmarked) [2-MTDC-lys]?
Answer: infarction extent induced by occlusion of the cerebral artery (test series of examples 3 and 4) (MNRI mice; listed as lysine salts of 2-MTDC): capable of reducing the infarction extent; influence on the concentration of dopamine, DOPAC, HVA (dopaminergic neurons; 2-MTDC-lys solely (no malonate), 2x0.8 mmol/kg i.p., four days after last application): no influence; effect on dopaminergic versus serotonergic neurons (5-HT, 5-HIAA) (dopaminergic neurons; chosen dose rate, examination period of four days from last application): affects obviously dopaminergic neurons but not serotonergic neurons; activity of dopaminergic neurons (3-methoxytyramine concentration) (dopaminergic neurons): long persistent activation; activity of dopaminergic neurons (3-methoxytyramine concentration) (dopaminergic neurons; listed as lysine salt of 2-MTDC): intense activation of the dopaminergic neurons; effect of malonate on the reduction of dopamine and dopamine metabolite concentrations (neuroprotection) (dopaminergic neurons; pretreatment 2x0.8 mmol/kg i.p., 2 μmol sodium malonate into left striatum, four days after last application): prevents the toxic effect of malonate; neurodegeneration of nerve ends in the striatum and cell bodies in the substantia nigra (dopaminergic neurons; treatment before malonate (prophylactic)): prevents the neurodegeneration

Question: Which “infarction extent induced by occlusion of the cerebral artery (test series of examples 3 and 4)” value (shortened to “infarction extent induced by occlusion”) (MNRI mice) does the source give for CC1(C(=O)O)N[C@H](C(=O)O)CS1 (mixture of isomers) [2-MTDC, (2RS,4R)-2-methylthiazolidine-2,4-dicarboxylic acid] here?
Answer: Its value is “capable of reducing the infarction extent”.

Question: For C[C@]1(C(=O)O)N[C@H](C(=O)O)CS1 [(2S,4R)-2-methylthiazolidine-2,4-dicarboxylic acid], which “infarction extent induced by occlusion” value (MNRI mice) is on record?
Answer: Its value is “capable of reducing the infarction extent”.

Question: With O=C([O-])CC(=O)[O-].[Na+].[Na+] [malonate, sodium malonate] as the compound, how does the “concentration of dopamine in the striatum compared to the contralateral striatum” value (striatum of rats) read?
Answer: Its value is 6%.

Question: Which “infarction extent induced by occlusion” value (MNRI mice) does the source give for C[C@@]1(C(=O)O)N[C@H](C(=O)O)CS1 [(2R,4R)-2-methylthiazolidine-2,4-dicarboxylic acid] here?
Answer: The value was “capable of reducing the infarction extent”.
